Measurements published in patent US20050009886A1, “1,4-Dihydropyridine derivative with a guaiacoxypropanolamine and/or phenoxypropanolamine moiety” (priority 1998, published 2005).

Key:
[1] = target: T1, β-adrenoreceptor (β1) (Rattus norvegicus, UniProt P18090); assay: Isolated right atrium, L-isoproterenol-induced heart rate increase (pA2); parameters: species or system Wistar rat; conditions: for β1 Value of pA2 Right Atrium: vs L-isoproterenol, Schild plot
T1 construct: The right and left atria were then separated; from tissue; host or cells: isolated rat right atrium (spontaneously beating) and left atrium (electrically paced)
T1 sequence (P18090 whole entry): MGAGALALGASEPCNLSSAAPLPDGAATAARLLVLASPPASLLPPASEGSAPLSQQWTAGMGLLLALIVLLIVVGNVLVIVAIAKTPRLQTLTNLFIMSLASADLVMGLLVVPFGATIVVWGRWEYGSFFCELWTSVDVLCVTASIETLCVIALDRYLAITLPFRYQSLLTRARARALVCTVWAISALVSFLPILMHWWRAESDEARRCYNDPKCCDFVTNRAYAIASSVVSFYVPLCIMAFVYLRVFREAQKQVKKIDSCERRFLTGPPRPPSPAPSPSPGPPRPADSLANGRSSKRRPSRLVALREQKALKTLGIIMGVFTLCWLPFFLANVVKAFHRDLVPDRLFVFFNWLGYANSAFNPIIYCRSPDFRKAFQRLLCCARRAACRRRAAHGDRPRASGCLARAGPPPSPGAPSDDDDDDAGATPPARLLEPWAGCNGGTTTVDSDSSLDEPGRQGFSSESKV
Description: The right and left atria were then separated. The spontaneously-beating right atria was clipped on both end by heart shaped clips, where one end was fixed at the bottom of 10 ml of tissue bath made of physiological saline solution, and temperature maintained at 37° C. The other end of the atria was connected to a force transducer, and isometric contractions and beating rate of the right atria were recorded by COULBOURN AT-High-Speed VideoFigure. After the samples were given 250 mg of contractions and reach equilibrium the following experiments were carried out: • (a) β-adrenoceptor blocking action
Cumulative administration interval was when the previous concentration reached its greatest effect, the next concentration would be immediately given.
The equation is as follows: pA2=−Log KB Log(DRADJ−1)=nlog[B]−LogKB [formula]
[B] Test compound concentration in moles • KB: equilibrium dissociation constant • n: value of slope DR: test EC50 divided by control EC50 • CF: EC50 of second or third control groups divided by EC50 of first control group (c) Effect of Compound on the Increase of Spontaneous Beating in Right Atrium Caused by CaCl2

[2] = target: T2, lung β 2-receptor (Rattus norvegicus, UniProt P10608); format: binding, Wistar rat; conditions: 25° C., 60 minutes
T2 construct: The heart and lung of rat were removed and placed in cold Tris buffer; from tissue; host or cells: membrane preparation from rat lung
T2 sequence (P10608 whole entry): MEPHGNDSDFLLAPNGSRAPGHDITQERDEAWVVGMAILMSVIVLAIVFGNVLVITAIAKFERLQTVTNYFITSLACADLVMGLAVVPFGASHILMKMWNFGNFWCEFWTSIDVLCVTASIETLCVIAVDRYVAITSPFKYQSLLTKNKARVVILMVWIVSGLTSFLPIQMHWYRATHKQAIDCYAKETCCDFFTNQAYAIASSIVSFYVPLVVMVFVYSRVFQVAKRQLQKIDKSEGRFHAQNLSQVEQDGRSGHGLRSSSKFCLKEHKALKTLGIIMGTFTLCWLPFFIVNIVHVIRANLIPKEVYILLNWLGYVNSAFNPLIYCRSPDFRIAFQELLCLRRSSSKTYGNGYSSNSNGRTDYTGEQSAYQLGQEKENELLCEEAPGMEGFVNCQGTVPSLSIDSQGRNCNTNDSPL

[3] = target: cerebral cortex calcium ion receptors; conditions: 25° C., 60 minutes
[4] = target: T3, β2 (Cavia porcellus, UniProt Q8K4Z4); assay: Guinea pig's isolated tracheal, L-isoproterenol relaxation of carbachol contraction (pA2); conditions: for β2 Value of pA2 Tracheal: vs L-isoproterenol, carbachol 10^−6 M contraction
T3 construct: a portion of tracheal approximately 4 cm long was removed; from tissue; host or cells: isolated trachea of reserpine-pretreated guinea pigs
T3 sequence (Q8K4Z4 whole entry): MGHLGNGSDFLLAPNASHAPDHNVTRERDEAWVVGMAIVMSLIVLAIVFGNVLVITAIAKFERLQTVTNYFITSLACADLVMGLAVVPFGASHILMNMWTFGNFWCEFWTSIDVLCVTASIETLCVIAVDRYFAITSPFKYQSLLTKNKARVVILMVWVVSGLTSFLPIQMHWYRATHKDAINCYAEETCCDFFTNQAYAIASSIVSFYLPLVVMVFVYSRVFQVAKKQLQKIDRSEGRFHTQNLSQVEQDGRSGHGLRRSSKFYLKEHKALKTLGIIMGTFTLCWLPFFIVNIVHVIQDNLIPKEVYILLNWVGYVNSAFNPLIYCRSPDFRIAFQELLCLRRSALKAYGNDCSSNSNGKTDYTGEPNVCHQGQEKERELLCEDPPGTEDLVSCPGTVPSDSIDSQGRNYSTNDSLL
Description: Guinea pigs of weight between 300˜500 gm were used. […] After the guinea pigs were sacrificed, a slit was made along the neck, and a portion of tracheal approximately 4 cm long was removed. […] The two ends of the tracheal were clamped with frog-heart shaped clamps, one end was fixed at the bottom of tissue bath filled with 20 ml of Kreb's solution, maintained at 37° C., while the other end was connected to a force transducer. Through a COULBOURN AT-High-Speed Videograph, long isometric contractions were recorded. After the sample was given 1.5 gm of tension and equilibrated, the following experiments were performed:
Then the tracheal was repeatedly washed with Kreb's solution for 20 minutes and 10−6 M of carbochol was added to cause contraction in the guinea pig's tracheal. […] This is the test group.
(b) Calculation of pA2: similar to the calculation method for isolated right atrium experiment.

[^3H] CGP-12177 (β2) pKi [2]: 6.20 ± 0.55 | [^3H]nitrendipine Ca^2+ PKi [3]: 7.86 ± 0.38 | block of the tracheal effect of L-isoproterenol ([4]; 10^−6, 10^−5, and 10^−6 M as printed): could competitively block | β2 Tracheal (slope) ([4]; slope of Schild regression): (0.84 ± 0.09) | β2 Value of pA2 Tracheal [4]: 7.09 ± 0.54 | β2 Value of pA2 Tracheal ([4]; listed as compound 1): 7.09±0.54
Structure (SMILES): COC(=O)C1=C(C)NC(C)=C(C(=O)OC)C1c1ccc(OCC(O)CNC(C)(C)C)c(OC)c1 (centres unmarked) [Compound 1]
Ratio of β1 and Calcium Antagonism [1]: 0.12 | effect on right atrium relative to tracheal (selectivity ratio of β1 type adrenoceptor) ([1]; from average pA2 difference between right atrium and tracheal): 1.32 × | β1/β2 ([1]; from pA2 difference right atrium vs tracheal): 1.32 | block of heart rate increment effect of L-isoproterenol ([1]; right atrium, 10^−6, 10^−5, and 10^−6 M as printed): could competitively block | β1 Right Atrium (Slope) ([1]; slope of Schild regression): (0.94 ± 0.18) | β1 Value of pA2 Right Atrium [1]: 7.21 ± 0.32 | β1 Value of pA2 Right Atrium ([1]; listed as compound 1): 7.21±0.32 | selectivity on the type of β-adrenoceptor ([1]; β1:β2): non-selective
